PMC10693969 (Parasites, Hosts and Diseases, 2023)
Where “and” joins values, the source holds several entries; their conditions need not be identical. Identical values can stand only once. Like-named read-outs stand apart in the source and are kept apart here.

Key:
[1] = tested on: Naegleria fowleri trophozoites (Carter NF69 strain, ATCC 30215); assay: In vitro anti-N. fowleri activity, trophozoite viability; type: cell-based; settings: for IC50: mean±SD of 3 independent experiments; for SI, sensitivity index (CC50 C6 glial cells / IC50 N. fowleri): ratio CC50 C6 glial cells / IC50 N. fowleri
[2] = tested on: A. castellanii (ATCC-30868) trophozoites; assay: In vitro anti-Acanthamoeba activity, A. castellanii trophozoite viability; type: cell-based; settings: for SI, sensitivity index (CC50 C6 glial cells / IC50 A. castellanii): ratio CC50 C6 glial cells / IC50 A. castellanii; for IC50: mean±SD of 3 independent experiments; for antiamoebic activity against A. castellanii (in words): in vitro
[3] = tested on: A. polyphaga (ATCC-30461) trophozoites; assay: In vitro anti-Acanthamoeba activity, A. polyphaga trophozoite viability; type: cell-based; settings: for IC50: mean±SD of 3 independent experiments; for SI, sensitivity index (CC50 C6 glial cells / IC50 A. polyphaga): ratio CC50 C6 glial cells / IC50 A. polyphaga; for antiamoebic activity against A. polyphaga (in words): in vitro
[4] = Cytotoxicity against C6 glial cells; type: cell-based, rat; settings: rat, C6 glial cells
[5] = tested on: C6 rat glial cells (ATCC CCL-107); assay: Cytotoxicity against C6 glial cells; type: cell-based; settings: read-out: C6 glial cells (CC50 ±SD); C6 rat glial cells, 0–400 μM; mean±SD of 3 independent assays
[6] = Naegleria fowleri, ATCC30215, 48 h, read-out: N. fowleri (IC50 ±SD, μM), trophozoites, 0–400 μM, 37°C, 48 h
[7] = read-out: N. fowleri (IC50 ±SD), trophozoites, 0–400 μM, 37°C, 48 h
[8] = read-out: A. castellanii (IC50 ±SD), trophozoites, 0–400 μM, 25°C, 48 h
[9] = Acanthamoeba polyphaga, ATCC30461, 48 h, read-out: A. polyphaga (IC50 ±SD, μM), trophozoites, 0–400 μM, 25°C, 48 h
[10] = read-out: A. polyphaga (IC50 ±SD), trophozoites, 0–400 μM, 25°C, 48 h
[11] = Acanthamoeba castellanii, ATCC30868, 48 h, read-out: A. castellanii (IC50 ±SD, μM), trophozoites, 0–400 μM, 25°C, 48 h

| Compound | IC50 [1, 6] [µM] | SI, sensitivity index (CC50 C6 glial cells / IC50 N. fowleri) [1] | IC50 [1, 7] [µM] | SI, sensitivity index (CC50 C6 glial cells / IC50 A. castellanii) [2] | IC50 [2, 8] [µM] | IC50 [3, 9] [µM] | SI, sensitivity index (CC50 C6 glial cells / IC50 A. polyphaga) [3] | IC50 [3, 10] [µM] | CC50 [4] [µM] | IC50 [2, 11] [µM] | antiamoebic activity against A. castellanii (in words) ([2]; trophozoites) | antiamoebic activity against A. polyphaga (in words) ([3]; trophozoites) | CC50 [5] [µM] | also measured |
| --- | --- | --- | --- | --- | --- | --- | --- | --- | --- | --- | --- | --- | --- | --- |
| O=c1c(O)c(-c2ccc(O)cc2)oc2cc(O)cc(O)c12 [Kaempferol, kaempferol] | < 30 | 12.00 | 27.8 ± 0.33 | 15.43 | 21.6 ± 1.28 | < 50 | 11.67 | 28.6 ± 1.17 | 333.8 ± 0.99 |  |  |  |  | SI, sensitivity index (CC50 C6 glial cells / IC50 N. fowleri) ([1]; listed as kaempferol): > 7 and > 8; IC50 ([1]; read-out: N. fowleri (IC50 ±SD), trophozoites, 0–400 μM, 37°C, 48 h, listed as kaempferol): < 40 µM; SI, sensitivity index (CC50 C6 glial cells / IC50 A. castellanii) ([2]; listed as kaempferol): > 8; IC50 ([2]; read-out: A. castellanii (IC50 ±SD), trophozoites, 0–400 μM, 25°C, 48 h, listed as kaempferol): < 40 µM; SI, sensitivity index (CC50 C6 glial cells / IC50 A. polyphaga) ([3]; listed as kaempferol): > 8; IC50 ([3]; read-out: A. polyphaga (IC50 ±SD), trophozoites, 0–400 μM, 25°C, 48 h, listed as kaempferol): < 40 µM |
| O=c1cc(-c2ccc(O)c(O)c2)oc2cc(O)cc(O)c12 [Luteolin, luteolin] | < 30 |  | 27.4 ± 0.61 |  |  | 40.2 ± 0.47 |  |  | > 350 | > 350 | not effective | effective |  |  |
| CCCCCCCCCCCCCCCCOP(=O)([O-])OCC[N+](C)(C)C [Miltefosine, miltefosine, reference compound] | 153.3 ± 1.3 | >1.60 |  | >1.15 |  | 227.5 ± 0.36 | >1.08 |  | > 245 | 213.2 ± 1.22 |  |  |  |  |
| O=c1c(O)c(-c2ccc(O)c(O)c2)oc2cc(O)cc(O)c12 [Quercetin, quercetin] | > 330 |  |  |  |  | 320.8 ± 0.33 | >1.03 |  | > 330 | > 330 | did not exhibit potential or selective antiamoebic activity | did not exhibit potential or selective antiamoebic activity |  |  |
| O=C(/C=C/c1ccc(O)c(O)c1)O[C@H](Cc1ccc(O)c(O)c1)C(=O)O [Rosmarinic acid, rosmarinic acid] | 77.7 ± 0.97 | >3.57 |  | >8.77 | 31.66 ± 0.31 |  | >12.38 | 22.4 ± 0.78 | > 278 | < 50 |  |  |  | antiamoebic activity against N. fowleri (in words) ([1]; trophozoites, in vitro): did not show significative anti-N. fowleri activities; SI, sensitivity index (CC50 C6 glial cells / IC50 A. castellanii) ([2]; listed as rosmarinic acid): > 8; SI, sensitivity index (CC50 C6 glial cells / IC50 A. polyphaga) ([3]; listed as rosmarinic acid): > 8; IC50 ([3]; read-out: A. polyphaga (IC50 ±SD), trophozoites, 0–400 μM, 25°C, 48 h, listed as rosmarinic acid): < 50 µM |
| (+)-pinostrobin |  |  | > 370 |  | > 370 |  |  | > 370 |  |  | did not exhibit potential or selective antiamoebic activity | did not exhibit potential or selective antiamoebic activity | > 370 |  |
| (±)-catechin hydrate |  |  | > 345 |  | > 345 |  |  | > 345 |  |  | did not exhibit potential or selective antiamoebic activity | did not exhibit potential or selective antiamoebic activity | > 345 |  |
| silybin (A+B) mixture |  | 4.13 | 24.2 ± 0.27 | 4.08 | 24.5 ± 0.56 |  | 6.31 | 15.82 ± 0.06 |  |  |  |  | 99.89 ± 0.78 | IC50 ([2]; read-out: A. castellanii (IC50 ±SD), trophozoites, 0–400 μM, 25°C, 48 h, listed as silybin (A+B)): < 50 µM; IC50 ([3]; read-out: A. polyphaga (IC50 ±SD), trophozoites, 0–400 μM, 25°C, 48 h, listed as silybin (A+B)): < 50 µM |
